Each compound was assayed on HCV replicon cells (assay: Cell-based HCV replicon assay (replicon RNA level by real time PCR, Taqman)). Details: Hepatitis C virus, 72 h, HCV replicon cells, replicon RNA level by real time PCR (Taqman), harvested on day 3; calculated EC90 reported as range class; read-out: EC90 (μM) range.
In short: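 HCV replicon cells treated 3 days with 10 serial 2-fold compound dilutions (top 25 μM to 1 μM; 0.5% DMSO, 10% FBS). Replicon RNA quantified by multiplex Taqman RT-PCR (NS5B amplicon, GAPDH control); EC50 and EC90 = concentrations giving ΔCT of 1 and 3.2 over baseline.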

SMILES | EC90 [µM]
Cc1nc(NCC(C)(C)CO)nc(N[C@@H]2C[C@H](CO)[C@@H](O)[C@H]2O)c1-c1nc2cnccc2s1 [Example 1317] | < 0.5
Cc1nc(NCC(C)(C)CC2CC2)nc(N[C@@H]2C[C@H](CO)[C@@H](O)[C@H]2O)c1-c1nc2cnccc2s1 [Example 1318] | < 0.5
Cc1nc(NCC(C)(C)C)nc(N[C@@H]2C[C@H](CO)[C@@H](O)[C@H]2O)c1-c1nc2c(C)nccc2s1 [Example 1319] | < 0.5
Cc1ccc([C@@H](C)Nc2nc(C)c(-c3nc4c(C)nccc4s3)c(N[C@@H]3C[C@H](CO)[C@@H](O)[C@H]3O)n2)cc1 [Example 1320] | < 0.5
Cc1nc(NCC(C)(C)C)nc(N[C@@H]2C[C@H](CO)[C@@H](O)[C@H]2O)c1-c1nc2c(s1)CCN(C)C2 [Example 1321] | 0.5 to 5
Cc1nc(NCC(C)(C)C)nc(N[C@@H]2C[C@H](CO)[C@@H](O)[C@H]2O)c1-c1ccc2ccccc2n1 [Example 1322] | > 5
Cc1ccc([C@@H](C)Nc2nc(C)c(-c3ccc4ccccc4n3)c(N[C@@H]3C[C@H](CO)[C@@H](O)[C@H]3O)n2)cc1 [Example 1323] | > 5
CCOCCNc1nc(C)c(-c2ccc3ccccc3n2)c(N[C@@H]2C[C@H](CO)[C@@H](O)[C@H]2O)n1 [Example 1324] | > 5
Cc1nc(N)nc(N[C@@H]2C[C@H](CO)[C@@H](O)[C@H]2O)c1-c1nc2cnccc2s1 [Example 1325] | 0.5 to 5
CNc1nc(C)c(-c2nc3cnccc3s2)c(N[C@@H]2C[C@H](CO)[C@@H](O)[C@H]2O)n1 [Example 1326] | < 0.5
Cc1nc(NCc2cccs2)nc(N[C@@H]2C[C@H](CN)[C@@H](O)[C@H]2O)c1-c1nc2ccccc2s1 [Example 1328] | < 0.5
Cc1nc(NCc2cccs2)nc(N[C@@H]2C[C@H](CNS(C)(=O)=O)[C@@H](O)[C@H]2O)c1-c1nc2ccccc2s1 [Example 1330] | < 0.5
CC(=O)NC[C@H]1C[C@@H](Nc2nc(NCc3cccs3)nc(C)c2-c2nc3ccccc3s2)[C@H](O)[C@@H]1O [Example 1331] | < 0.5
CCc1nccc2sc(-c3c(C)nc(NCC4CC4)nc3N[C@@H]3C[C@H](CO)[C@@H](O)[C@H]3O)nc12 [Example 1333] | < 0.5
CCc1nccc2sc(-c3c(C)nc(NCC(C)(C)C)nc3N[C@@H]3C[C@H](CO)[C@@H](O)[C@H]3O)nc12 [Example 1334] | < 0.5
CCc1nccc2sc(-c3c(C)nc(N[C@H](C)c4ccc(C)cc4)nc3N[C@@H]3C[C@H](CO)[C@@H](O)[C@H]3O)nc12 [Example 1335] | < 0.5

Same assay, conditions: Hepatitis C virus, 72 h, HCV replicon cells, replicon RNA level by real time PCR, harvested day 3; read-out: EC90 (μM) range

SMILES | EC90 [µM]
Cc1nc(NCC2CC2)nc(N[C@@H]2C[C@H](CO)[C@@H](O)[C@H]2O)c1-c1nc2c(OCC3CC3)nccc2s1 [Example 1338] | < 0.5
Cc1ccc([C@@H](C)Nc2nc(C)c(-c3nc4c(OCC5CC5)nccc4s3)c(N[C@@H]3C[C@H](CO)[C@@H](O)[C@H]3O)n2)cc1 [Example 1339] | < 0.5
CCc1nccc2sc(-c3c(C)nc(NCC(F)(F)F)nc3N[C@@H]3C[C@H](CO)[C@@H](O)[C@H]3O)nc12 [Example 1340] | < 0.5
CO[C@@H]1[C@H](O)[C@@H](CO)C[C@H]1Nc1nc(NCC(F)(F)F)nc(C)c1-c1nc2ccccc2s1 [Example 1341] | < 0.5
CCOc1nccc2sc(-c3c(C)nc(N[C@H](C)c4ccc(C)cc4)nc3N[C@@H]3C[C@H](CO)[C@@H](O)[C@H]3O)nc12 [Example 1343] | < 0.5
CCCc1nccc2sc(-c3c(C)nc(N[C@H](C)C4CC4)nc3N[C@@H]3C[C@H](CO)[C@@H](O)[C@H]3O)nc12 [Example 1346] | < 0.5
CCOc1cc2cc(-c3c(C)nc(NCC4CC4)nc3N[C@@H]3C[C@H](CNS(C)(=O)=O)[C@@H](O)[C@H]3O)oc2c(C)n1 [Example 1347] | < 0.5
Cc1nc(NCC(F)(F)F)nc(N[C@@H]2C[C@H](CO)N(C(=O)OC(C)(C)C)C2)c1-c1nc2ccccc2s1 [Example 1348] | > 5
Cc1nc(NCC(F)(F)F)nc(N[C@H]2CN[C@@H](CO)C2)c1-c1nc2ccccc2s1 [Example 1349] | > 5
CO[C@@H]1[C@H](O)[C@@H](CO)C[C@H]1Nc1nc(N[C@H](C)c2ccc(C)cc2)nc(C)c1-c1nc2cnccc2s1 [Example 1350] | < 0.5
Cc1nc(N[C@H](C)C(F)(F)F)nc(N[C@@H]2C[C@H](CO)[C@@H](O)[C@H]2O)c1-c1nc2c(C)nccc2s1 [Example 1351] | < 0.5
CCO[C@@H]1[C@H](O)[C@@H](CO)C[C@H]1Nc1nc(NCC(F)(F)F)nc(C)c1-c1nc2ccccc2s1 [Example 1352] | < 0.5
Cc1nc(N[C@@H](c2ccccc2)C(F)(F)F)nc(N[C@@H]2C[C@H](CO)[C@@H](O)[C@H]2O)c1-c1nc2c(C)nccc2s1 [Example 1353] | < 0.5
CO[C@@H]1[C@H](O)[C@@H](CO)C[C@H]1Nc1nc(NCC(F)(F)F)nc(C)c1-c1nc2ccccc2o1 [Example 1354] | < 0.5
Cc1nc(N[C@H](C)c2ccc(-n3cccn3)cc2)nc(N[C@@H]2C[C@H](CO)[C@@H](O)[C@H]2O)c1-c1nc2c(C)nccc2s1 [Example 1355] | < 0.5
Cc1nc(N[C@H](C)c2ccc(C(F)(F)F)cc2)nc(N[C@@H]2C[C@H](CO)[C@@H](O)[C@H]2O)c1-c1nc2c(C)nccc2s1 [Example 1356] | < 0.5
Cc1nc(NCC(F)(F)F)nc(N[C@@H]2C[C@H](CS(C)(=O)=O)[C@@H](O)[C@H]2O)c1-c1nc2ccccc2s1 [Example 1357] | < 0.5
Cc1ccc([C@@H](C)Nc2nc(C)c(-c3nc4c(C)nccc4s3)c(N[C@@H]3C[C@H](CO)[C@@H](O)[C@H]3O)n2)cc1F [Example 1358] | < 0.5
Cc1nc(NCC(C)(C)C)nc(N[C@@H]2C[C@H](CO)[C@@H](O)[C@H]2O)c1-c1nc2ccccc2o1 [Example 1359] | < 0.5
Cc1ccc([C@@H](C)Nc2nc(C)c(-c3nc4ccccc4o3)c(N[C@@H]3C[C@H](CO)[C@@H](O)[C@H]3O)n2)cc1 [Example 1360] | 0.5 to 5
Cc1nc(N[C@@H](c2ccsc2)C(F)(F)F)nc(N[C@@H]2C[C@H](CO)[C@@H](O)[C@H]2O)c1-c1nc2c(C)nccc2s1 [Example 1361] | < 0.5
Cc1ccc([C@H](Nc2nc(C)c(-c3nc4c(C)nccc4s3)c(N[C@@H]3C[C@H](CO)[C@@H](O)[C@H]3O)n2)C2CC2)cc1 [Example 1362] | < 0.5

SMILES | EC90 [µM]
CC[C@@H](Nc1nc(C)c(-c2nc3c(C)nccc3s2)c(N[C@@H]2C[C@H](CO)[C@@H](O)[C@H]2O)n1)c1ccc(C)cc1 [Example 1363] | < 0.5
COC[C@@H](Nc1nc(C)c(-c2nc3c(C)nccc3s2)c(N[C@@H]2C[C@H](CO)[C@@H](O)[C@H]2O)n1)c1ccccc1 [Example 1364] | 0.5 to 5
Cc1nc(N[C@H](C)c2ccc(-n3cccn3)cc2)nc(N[C@@H]2C[C@H](CO)[C@@H](O)[C@H]2O)c1-c1nc2ccccc2s1 [Example 1365] | < 0.5
Cc1nc(NCC(F)(F)F)nc(N[C@@H]2C[C@H](O)[C@@H](O)[C@H]2O)c1-c1nc2ccccc2s1 [Example 1366] | 0.5 to 5
Cc1nc(NCC(F)(F)F)nc(N[C@@H]2C[C@H](CS(C)(=O)=O)[C@@H](O)[C@H]2O)c1-c1nc2cnccc2s1 [Example 1367] | < 0.5
Cc1ccc([C@@H](C)Nc2nc(C)c(-c3nc4cnccc4s3)c(N[C@@H]3C[C@H](CS(C)(=O)=O)[C@@H](O)[C@H]3O)n2)cc1 [Example 1368] | < 0.5
CCCc1nccc2sc(-c3c(C)nc(NCC4CC4)nc3N[C@@H]3C[C@H](CO)[C@@H](O)[C@H]3O)nc12 [Example 1369] | < 0.5
Cc1nc(NCC2CC2)nc(N[C@@H]2C[C@H](CO)[C@@H](O)[C@H]2O)c1-c1nc2c(CC(C)C)nccc2s1 [Example 1370] | < 0.5
CCCc1nccc2sc(-c3c(C)nc(N[C@H](C)c4ccc(C)cc4)nc3N[C@@H]3C[C@H](CO)[C@@H](O)[C@H]3O)nc12 [Example 1371] | < 0.5
Cc1ccc([C@@H](C)Nc2nc(C)c(-c3nc4c(CC(C)C)nccc4s3)c(N[C@@H]3C[C@H](CO)[C@@H](O)[C@H]3O)n2)cc1 [Example 1372] | < 0.5
Cc1nc(N[C@H](C)C2CC2)nc(N[C@@H]2C[C@H](CO)[C@@H](O)[C@H]2O)c1-c1nc2c(CC(C)C)nccc2s1 [Example 1373] | < 0.5
CCOc1cc2sc(-c3c(C)nc(NCC4CC4)nc3N[C@@H]3C[C@H](CO)[C@@H](O)[C@H]3O)nc2c(C)n1 [Example 1374] | 0.5 to 5
CCOc1cc2sc(-c3c(C)nc(N[C@H](C)c4ccc(C)cc4)nc3N[C@@H]3C[C@H](CO)[C@@H](O)[C@H]3O)nc2c(C)n1 [Example 1375] | < 0.5
CCOCCNc1nc(C)c(-c2nc3c(C)nc(OCC)cc3s2)c(N[C@@H]2C[C@H](CO)[C@@H](O)[C@H]2O)n1 [Example 1376] | < 0.5
CCNC(=O)NC[C@H]1C[C@@H](Nc2nc(NCC(F)(F)F)nc(C)c2-c2nc3ccccc3s2)[C@H](O)[C@@H]1O [Example 1377] | 0.5 to 5
Cc1nc(N(C)CC(F)(F)F)nc(N[C@@H]2C[C@H](CN(C)S(C)(=O)=O)[C@@H](O)[C@H]2O)c1-c1nc2ccccc2s1 [Example 1378] | > 5
Cc1nc(NCC(F)(F)F)nc(N[C@@H]2C[C@H](CN(C)S(C)(=O)=O)[C@@H](O)[C@H]2O)c1-c1nc2ccccc2s1 [Example 1379] | < 0.5
CCCc1nccc2sc(-c3c(C)nc(N[C@H](C)C(F)(F)F)nc3N[C@@H]3C[C@H](CO)[C@@H](O)[C@H]3O)nc12 [Example 1380] | < 0.5
CCCc1nccc2sc(-c3c(C)nc(N[C@H](C)C4CC4)nc3N[C@@H]3C[C@H](CS(C)(=O)=O)[C@@H](O)[C@H]3O)nc12 [Example 1381] | < 0.5
CCc1nccc2sc(-c3c(C)nc(N[C@H](C)C4CC4)nc3N[C@@H]3C[C@H](CS(C)(=O)=O)[C@@H](O)[C@H]3O)nc12 [Example 1382] | < 0.5
Cc1nc(NCC2CC2)nc(N[C@@H]2C[C@H](CO)[C@@H](O)C2(C)O)c1-c1nc2cnccc2s1 (some centres unmarked) [Example 1383] | < 0.5
